We go through nine compounds from patent US8937048B2, “Anti-angiogenic compounds” (Covx Technologies Ireland, Limited, priority 2008, dated 2015).

Usually pIC50 stands for the negative decadic logarithm of the IC50, by convention in mol/L.

pIC50: −log10 of the molar value. Where a SMILES comes first, the peptide text is derived from it. Bridges are numbered along the chain shown (N, C = ends).

The target of the test is T1, recombinant human VEGF165 (Homo sapiens, UniProt P15692).
T1 sequence (P15692 27-191 isoform P15692-4): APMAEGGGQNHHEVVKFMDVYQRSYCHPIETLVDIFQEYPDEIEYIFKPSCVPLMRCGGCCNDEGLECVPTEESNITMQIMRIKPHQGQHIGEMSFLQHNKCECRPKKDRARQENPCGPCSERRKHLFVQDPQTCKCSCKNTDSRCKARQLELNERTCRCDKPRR
The test can be described thus: VEGF peptide binding assay (competition ELISA, VEGF165 binding to coated VEGFR2/Fc). On the procedure: High-binding half-well 96-well plates (Costar #3690) were coated with recombinant human VEGFR2/Fc (50 ng/well) in 50 μl PBS, and incubated at 4° C. overnight. After washing the plates three times with 1× washing buffer (KPL Cat#50-65-00) and blocking with Superblock (Scytek #AAA500) at room temperature (RT) for 1 hour, VEGF-peptides of the invention were serially diluted (concentrations: 0.128-10,000 nM) in the presence of 25 ng/ml of recombinant human VEGF165 in […] Superblock, and were then added to the 96-well plates and incubated at RT for 1 hour. Peptides of the invention tested in this fashion were all capped at the amino terminus with a C(O)CH3 group and at the carboxyl terminus with a NH2 group. The plates were then washed three times with washing buffer, and a diluted (1:500) biotinylated anti-human VEGF antibody (R&D systems, Cat# BAF293) was added and incubated at RT for 2 hours. After washing the plates, streptavidin HRP conjugate (1:200 in Superblock) (R&D systems, Cat# DY998) was added to detect the bound anti-VEGF antibody, followed by addition of tetramethylbenzidine (TMB) substrate (Pierce, Cat#34021) for color development. The reaction was stopped with 2 M H2SO4. OD450 was measured using SpectraMax (Molecular Device) with a correction wavelength of 540 nm. The data were analyzed using Prism software. OD450 values were plotted as a function of the concentrations of the VEGF peptides. IC50 values, indicative of the potency of the VEGF peptides to inhibit VEGF-VEGFR2 interaction, were obtained using a sigmoid dose-response curve fit in Prism.
As to `CC[C@H](C)[C@@H]1NC(=O)[C@H](CC(=O)O)NC(=O)[C@@H](NC(=O)[C@H](CC(N)=O)NC(=O)[C@@H]2CCCN2C(=O)[C@H](CCC(=O)O)NC(=O)[C@@H](NC(C)=O)C(C)C)CSSC[C@@H](C(=O)N[C@@H](Cc2ccccc2)C(=O)N[C@@H](CCC(=O)O)C(=O)N[C@@H](CCCNC(=N)N)C(=O)N[C@@H](CC(C)C)C(N)=O)NC(=O)[C@H](CCC(=O)O)NC(=O)[C@H](Cc2c[nH]c3ccccc23)NC(=O)[C@H](CCC(=O)O)NC(=O)[C@H](Cc2c[nH]c3ccccc23)NC(=O)[C@H](CCSC)NC(=O)[C@H](C(C)C)NC(=O)[C@H](Cc2c[nH]cn2)NC1=O` [Compound 34, V-E-P-N-C-D-I-H-V-M-W-E-W-E-C-F-E-R-L] (Ac-VEPNCDIHVMWEWECFERL-NH2; disulfide 5-15 (inferred)), the pIC50 was 6.73.

Turning to `CC[C@H](C)[C@@H]1NC(=O)[C@H](CC(=O)O)NC(=O)[C@@H](NC(=O)[C@H](CC(N)=O)NC(=O)[C@@H]2CCCN2C(=O)[C@H](CCC(=O)O)NC(=O)[C@@H](NC(C)=O)C(C)C)CSSC[C@@H](C(=O)N[C@@H](Cc2ccccc2)C(=O)N[C@@H](CCC(=O)O)C(=O)N[C@@H](CCCNC(=N)N)C(=O)N[C@@H](CC(C)C)C(=O)N[C@@H](Cc2ccc(O)cc2)C(=O)NCC(=O)NCC(=O)N[C@@H](Cc2c[nH]c3ccccc23)C(N)=O)NC(=O)[C@H](CCC(=O)O)NC(=O)[C@H](Cc2c[nH]c3ccccc23)NC(=O)[C@H](C(C)C)NC(=O)[C@H](Cc2c[nH]c3ccccc23)NC(=O)[C@H](CCSC)NC(=O)[C@H](C(C)C)NC(=O)[C@H](Cc2c[nH]cn2)NC1=O` [Compound 35, VEPNCDIHVMWVWECFERLYGGW] (Ac-VEPNCDIHVMWVWECFERLYGGW-NH2; disulfide 5-15 (inferred)), the pIC50 was 6.49.

As to `CC[C@H](C)[C@@H]1NC(=O)[C@H](CC(=O)O)NC(=O)[C@@H](NC(=O)[C@H](CC(N)=O)NC(=O)[C@@H]2CCCN2C(=O)[C@H](CCC(=O)O)NC(=O)[C@@H](NC(C)=O)C(C)C)CSSC[C@@H](C(=O)N[C@@H](Cc2ccccc2)C(=O)N[C@@H](CCC(=O)O)C(=O)N[C@@H](CCCNC(=N)N)C(=O)N[C@@H](CC(C)C)C(=O)N[C@@H](Cc2ccccc2)C(=O)N[C@@H](CCCNC(=N)N)C(=O)N[C@@H](CCC(=O)O)C(=O)N[C@@H](C)C(N)=O)NC(=O)[C@H](C(C)C)NC(=O)[C@H](Cc2c[nH]c3ccccc23)NC(=O)[C@H](C(C)C)NC(=O)[C@H](Cc2c[nH]c3ccccc23)NC(=O)[C@H](CCSC)NC(=O)[C@H](C(C)C)NC(=O)[C@H](Cc2c[nH]cn2)NC1=O` [Compound 36, VEPNCDIHVMWVWVCFERLFREA] (Ac-VEPNCDIHVMWVWVCFERLFREA-NH2; disulfide 5-15 (inferred)), the negative-log IC50 (pIC50) is 6.76.

As for `CC[C@H](C)[C@@H]1NC(=O)[C@H](CC(=O)O)NC(=O)[C@@H](NC(=O)[C@H](CC(N)=O)NC(=O)[C@@H]2CCCN2C(=O)[C@H](CCC(=O)O)NC(=O)[C@@H](NC(C)=O)C(C)C)CSSC[C@@H](C(=O)N[C@@H](Cc2ccccc2)C(=O)N[C@@H](CCC(=O)O)C(=O)N[C@@H](CCCNC(=N)N)C(=O)N[C@@H](CC(C)C)C(=O)N[C@@H](Cc2ccccc2)C(=O)N[C@@H](CCCCN)C(=O)N[C@@H](CCC(=O)O)C(=O)N[C@@H](C)C(N)=O)NC(=O)[C@H](C(C)C)NC(=O)[C@H](Cc2c[nH]c3ccccc23)NC(=O)[C@H](C(C)C)NC(=O)[C@H](Cc2c[nH]c3ccccc23)NC(=O)[C@H](CCSC)NC(=O)[C@H](C(C)C)NC(=O)[C@H](Cc2c[nH]cn2)NC1=O` [Compound 37, VEPNCDIHVMWVWVCFERLFKEA] (Ac-VEPNCDIHVMWVWVCFERLFKEA-NH2; disulfide 5-15 (inferred)), the pIC50 is 7.23.

Regarding `CC[C@H](C)[C@@H]1NC(=O)[C@H](CC(=O)O)NC(=O)[C@@H](NC(=O)[C@H](CC(N)=O)NC(=O)[C@@H]2CCCN2C(=O)[C@H](CCC(=O)O)NC(=O)[C@@H](NC(C)=O)C(C)C)CSSC[C@@H](C(=O)N[C@@H](Cc2ccccc2)C(=O)N[C@@H](CCC(=O)O)C(=O)N[C@@H](CCCNC(=N)N)C(=O)N[C@@H](CC(C)C)C(=O)N[C@@H](CCSC)C(=O)N[C@@H](CCCCN)C(N)=O)NC(=O)[C@H](C(C)C)NC(=O)[C@H](Cc2c[nH]c3ccccc23)NC(=O)[C@H](C(C)C)NC(=O)[C@H](Cc2c[nH]c3ccccc23)NC(=O)[C@H](CCSC)NC(=O)[C@H](C(C)C)NC(=O)[C@H](Cc2c[nH]cn2)NC1=O` [Compound 38, VEPNCDIHVMWVWVCFERLMK] (Ac-VEPNCDIHVMWVWVCFERLMK-NH2; disulfide 5-15 (inferred)), the pIC50 was 7.03.

`CC[C@H](C)[C@@H]1NC(=O)[C@H](CC(=O)O)NC(=O)[C@@H](NC(=O)[C@H](CC(N)=O)NC(=O)[C@@H]2CCCN2C(=O)[C@H](CCC(=O)O)NC(=O)[C@@H](NC(C)=O)C(C)C)CSSC[C@@H](C(=O)N[C@@H](Cc2ccccc2)C(=O)N[C@@H](CCC(=O)O)C(=O)N[C@@H](CCCNC(=N)N)C(=O)N[C@@H](CC(C)C)C(=O)N[C@@H](Cc2ccc(O)cc2)C(=O)N[C@@H](CCCNC(=N)N)C(=O)N[C@@H](CCC(=O)O)C(=O)N[C@@H](CC(C)C)C(N)=O)NC(=O)[C@H](CCC(=O)O)NC(=O)[C@H](Cc2c[nH]c3ccccc23)NC(=O)[C@H](C(C)C)NC(=O)[C@H](Cc2c[nH]c3ccccc23)NC(=O)[C@H](CCSC)NC(=O)[C@H](C(C)C)NC(=O)[C@H](Cc2c[nH]cn2)NC1=O` [Compound 39, VEPNCDIHVMWVWECFERLYREL] (Ac-VEPNCDIHVMWVWECFERLYREL-NH2; disulfide 5-15 (inferred)): the pIC50 is 7.15.

On to `CC[C@H](C)[C@H](NC(=O)CNC(=O)[C@H](Cc1ccc(O)cc1)NC(=O)[C@H](CC(C)C)NC(=O)[C@H](CCCNC(=N)N)NC(=O)[C@H](CCC(=O)O)NC(=O)[C@H](Cc1ccccc1)NC(=O)[C@@H]1CSSC[C@H](NC(=O)[C@H](CC(N)=O)NC(=O)[C@@H]2CCCN2C(=O)[C@H](CCC(=O)O)NC(=O)[C@@H](NC(C)=O)C(C)C)C(=O)N[C@@H](CC(=O)O)C(=O)N[C@@H]([C@@H](C)CC)C(=O)N[C@@H](Cc2c[nH]cn2)C(=O)N[C@@H](C(C)C)C(=O)N[C@@H](CCSC)C(=O)N[C@@H](Cc2c[nH]c3ccccc23)C(=O)N[C@@H](C(C)C)C(=O)N[C@@H](Cc2c[nH]c3ccccc23)C(=O)N[C@@H](CCC(=O)O)C(=O)N1)C(=O)N[C@@H](Cc1ccccc1)C(N)=O` [Compound 40, VEPNCDIHVMWVWECFERLYGIF] (Ac-VEPNCDIHVMWVWECFERLYGIF-NH2; disulfide 5-15 (inferred)), for which the pIC50 was 7.11.

For the compound `CC[C@H](C)[C@@H]1NC(=O)[C@H](CC(=O)O)NC(=O)[C@@H](NC(=O)[C@H](CC(N)=O)NC(=O)[C@@H]2CCCN2C(=O)[C@H](CCC(=O)O)NC(=O)[C@@H](NC(C)=O)C(C)C)CSSC[C@@H](C(=O)N[C@@H](Cc2ccccc2)C(=O)N[C@@H](CCC(=O)O)C(=O)N[C@@H](CCCNC(=N)N)C(=O)N[C@@H](CC(C)C)C(=O)N[C@@H](Cc2ccc(O)cc2)C(N)=O)NC(=O)[C@H](CCC(=O)O)NC(=O)[C@H](Cc2c[nH]c3ccccc23)NC(=O)[C@H](C(C)C)NC(=O)[C@H](Cc2c[nH]c3ccccc23)NC(=O)[C@H](CCSC)NC(=O)[C@H](C(C)C)NC(=O)[C@H](Cc2c[nH]cn2)NC1=O` [Compound 41, VEPNCDIHVMWVWECFERLY] (Ac-VEPNCDIHVMWVWECFERLY-NH2; disulfide 5-15 (inferred)), the negative-log IC50 (pIC50) is 7.16.

Regarding `CC[C@H](C)[C@@H]1NC(=O)[C@H](CC(=O)O)NC(=O)[C@@H](NC(=O)[C@H](CC(N)=O)NC(=O)[C@@H]2CCCN2C(=O)[C@H](CCC(=O)O)NC(=O)[C@@H](NC(C)=O)C(C)C)CSSC[C@@H](C(=O)N[C@@H](Cc2ccccc2)C(=O)N[C@@H](CCC(=O)O)C(=O)N[C@@H](CCCNC(=N)N)C(=O)N[C@@H](CC(C)C)C(=O)N[C@@H](Cc2ccc(O)cc2)C(=O)NCC(=O)N[C@@H](Cc2c[nH]c3ccccc23)C(=O)NCC(N)=O)NC(=O)[C@H](CCC(=O)O)NC(=O)[C@H](Cc2c[nH]c3ccccc23)NC(=O)[C@H](C(C)C)NC(=O)[C@H](Cc2c[nH]c3ccccc23)NC(=O)[C@H](CCSC)NC(=O)[C@H](C(C)C)NC(=O)[C@H](Cc2c[nH]cn2)NC1=O` [Compound 42, VEPNCDIHVMWVWECFERLYGWG] (Ac-VEPNCDIHVMWVWECFERLYGWG-NH2; disulfide 5-15 (inferred)), the pIC50 is 7.17.
